Test results: article PMC4080980, “The pharmacokinetics of anthocyanins and their metabolites in humans” (British Journal of Pharmacology, 2014)
Marks after values point to notes of the source that are not given here.

Tests used:
[1] = Serum pharmacokinetics after 500 mg oral bolus of 13C5-C3G (HPLC-ESI-MS/MS, non-compartmental analysis); format: in vivo, humans; conditions: for Cmax: healthy men, mean ± SEM of participants in whom detected; for AUC(0-t) / AUC0-48: trapezoidal rule; for AUC(0-t): read-out: AUC0-48
Method: (§1) A detailed description of the clinical design was previously published ([Czank et al., 2013]). Briefly, a single 500 mg oral bolus dose of isotopically labelled C3G (^13C5-C3G) was fed to eight healthy male participants (body mass index, 18.5–30.5 kg·m^–2; aged 18–45 years) after an overnight fast (>8 h). Participants provided blood (baseline, 0.5, 1, 2, 4, 6, 24, 48 h), urine (individual voids between 0 and 6 h, total voids between 6–24 and 24–48 h), breath (baseline, 0.5, 1, 2, 4, 6, 24, 48 h) and faecal samples (all voids between 0–6, 6–24 and 24–48 h). The study was conducted at the Clinical Research and Trials Unit at the University of East Anglia according to the principles expressed in the Declaration of Helsinki and was approved by the Cambridgeshire 3 Research Ethics Committee (REC ref: 10/H0306/42) and registered at clinicaltrials.gov as NCT01106729.
(§2) Serum, urine and faecal samples were extracted by SPE and analysed by HPLC-ESI-MS/MS as recently described ([Czank et al., 2013]). The extraction efficiency was established as 87 ± 11% (coefficient of variation, CV; 6.8 ± 0.7%) for serum, 88 ± 18% (CV, 7.9 ± 0.8%) for urine and 81 ± 21% (CV, 14.1 ± 1.2%) for faeces (n = 3 replicates for each analyte). Sample extracts (5 μL) were injected onto a Kinetex PFP column (Phenomonex) and separated using an Agilent 1200 series HPLC with a QTrap 4000 linear ion trap mass spectrometer (ABSciex, Warrington, UK). […] Metabolite identification was performed by multiple reaction monitoring (MRM) optimized for the detection of pure standards with m/z of the parent and daughter fragments adjusted to +2,+3,+5 amu to allow identification of the ^13C-labelled metabolites derived from the B-ring, A-ring or the parent structure respectively. Metabolites were confirmed on the basis of retention time (using authentic and synthesized standards where possible) and three or more ion transitions. The HPLC-ESI-MS/MS method was validated for linearity and precision across all metabolites. Six point standard curves ranging from 1.25 to 20 μM were constructed from analytical standards and injected six times. The precision was established as 1.4–11.0% and linearity of the standard curves was established as r^2 = 0.991–1.000 (CV, 0.2%) across the identified metabolites.
(§3) Pharmacokinetic modelling of metabolites in the serum was performed with the PKSolver ‘add-on’ for Excel 2010 (Microsoft, […], USA) ([Zhang et al., 2010]) using non-compartmental analysis with the AUC calculated using the trapezoidal rule. Pharmacokinetic parameters were established for each individual analyte and presented as mean ± SEM. Urine samples collected during the first 6 h post-bolus were grouped together to the nearest hour time point (i.e. samples were not pooled but individual concentrations were averaged post-quantification) for graphical representation and to calculate total cumulative recovery. The concentration of metabolites was converted to amount recovered from urine by accounting for the molecular weight of the individual ^13C-labelled metabolites and the volume of the individual participants void and averaged across participants. Recovery of metabolites in the faeces was established from the molecular weight of the ^13C-labelled metabolite and the weight of the individual participants void adjusting for faecal water content as previously described ([Czank et al., 2013]). Urine and faecal recovery amounts are presented as mean ± SEM (n = 8), unless otherwise stated.

[2] = Urinary elimination/recovery after 500 mg oral bolus of 13C5-C3G; format: in vivo, humans; conditions: urine, single 500 mg oral 13C5-C3G; for Tmax: male, human, po, 500 mg, urine collection interval, read-out: Time at maximum concentration; for Total recovery: 0-48 h; for Total recovery / Maximum concentration: mean ± SEM
Method: as §1, §2, §3

[3] = Faecal recovery after 500 mg oral bolus of 13C5-C3G; format: in vivo, humans; conditions: faeces, 500 mg oral 13C5-C3G; for Recovery 6–24 h / Recovery 24–48 h: mean ± SEM; for Recovery 0–6 h: 0–6 h (only 2 participants provided voids)
Method: The study was conducted at the Clinical Research and Trials Unit at the University of East Anglia according to the principles expressed in the Declaration of Helsinki and was approved by the Cambridgeshire 3 Research Ethics Committee (REC ref: 10/H0306/42) and registered at clinicaltrials.gov as NCT01106729.
Sample extracts (5 μL) were injected onto a Kinetex PFP column (Phenomonex) and separated using an Agilent 1200 series HPLC with a QTrap 4000 linear ion trap mass spectrometer (ABSciex, Warrington, UK). […] Metabolite identification was performed by multiple reaction monitoring (MRM) optimized for the detection of pure standards with m/z of the parent and daughter fragments adjusted to +2,+3,+5 amu to allow identification of the ^13C-labelled metabolites derived from the B-ring, A-ring or the parent structure respectively. […] The HPLC-ESI-MS/MS method was validated for linearity and precision across all metabolites.
Pharmacokinetic parameters were established for each individual analyte and presented as mean ± SEM. Urine samples collected during the first 6 h post-bolus were grouped together to the nearest hour time point (i.e. samples were not pooled but individual concentrations were averaged post-quantification) for graphical representation and to calculate total cumulative recovery. The concentration of metabolites was converted to amount recovered from urine by accounting for the molecular weight of the individual ^13C-labelled metabolites and the volume of the individual participants void and averaged across participants. […] Urine and faecal recovery amounts are presented as mean ± SEM (n = 8), unless otherwise stated.

[4] = design: method as in Czank et al., 2013; conditions: ref Czank et al., 2013, cited from earlier work
plasma IL-6 = system: plasma IL-6; design: method as in Kim et al., 2010; conditions: vanillic acid fed mice; ref Kim et al., 2010; cited from earlier work
[5] = system: vascular cell adhesion molecule-1 (VCAM-1); design: method as in Wang et al., 2010; conditions: TNF-α-induced mouse aortic endothelial cells; ref Wang et al., 2010; cited from earlier work
plasma VCAM-1 = system: plasma VCAM-1; design: method as in Wang et al., 2010; conditions: mice fed PCA; ref Wang et al., 2010; cited from earlier work
[6] = system: LPS-induced RAW 264.7 cells; design: method as in Min et al., 2010; conditions: ref Min et al., 2010; cited from earlier work
[7] = male, human, serum, po, 500 mg, serum elimination half-life, single 500 mg oral 13C5-C3G, mean ± SEM
[8] = male, human, serum, po, 500 mg, serum, single 500 mg oral 13C5-C3G, mean ± SEM, read-out: tmax
[9] = male, human, serum, po, 500 mg, single 500 mg oral 13C5-C3G
[10] = male, human, serum, single 500 mg oral 13C5-C3G, mean ± SEM
[11] = serum, single 500 mg oral 13C5-C3G
[12] = serum, single 500 mg oral 13C5-C3G, mean ± SEM

Compound	half-life [1, 7] [h]	Tmax [1, 8] [h]	Cmax [1, 9] [nM]	AUC(0-t) [1, 10] [µM·h]	Tmax [2] [h]	Total recovery [2] [µg]	Maximum concentration [2] [nM]	Recovery 6–24 h [3]	Recovery 24–48 h [3]	Cmax [1, 11] [nM]	Tmax [1, 12] [h]	AUC0-48 [1, 12] [µM·h]	Recovery 0–6 h [3]	further results
COc1cc(C(=O)O)ccc1O [Vanillic acid (VA), Vanillic acid]	6.4	12.5 ± 11.5	1840 ± 838	–	1 to 2	960.4 ± 350.0	3412 ± 312	54.7 ± 1.6 ^h μg	49.3 ± 21.4 ^g μg	–	–	–	–	plasma IL-6 (plasma IL-6): reductions
O=C(O)c1ccc(O)c(O)c1 [Protocatechuic acid (PCA), Protocatechuic acid]	9.9 ± 3.4	3.3 ± 0.7	147	1.38 ± 0.76	1 to 2	71.6 ± 20.9	337 ± 117	360.9 ± 278.1 ^c μg	221.8 ± 134.9 ^d μg	146 ± 74	–	–	–	Recovery 6–24 h ([3]; listed as PCA): 360.9 µg; VCAM-1 protein and mRNA [5]: reduce; plasma VCAM-1 levels (plasma VCAM-1): reduced; production of TNF-α, IL-1β, NO, PGE2 and gene expression of NOS and COX-2 [6]: suppress
COc1ccc(C(=O)O)cc1OC1OC(C(=O)O)C(O)C(O)C1O (centres unmarked) [IsoVA-3-glucuronide]	–	–	–	–	–	526.8 ± 92.2	699 ± 90	1.3 ^b μg	12.7 ± 10.9 ^h μg	35 ± 5	4.3 ± 0.6	0.103 ± 0.013	1.8 ^b μg	t1/2 ([1]; serum elimination half-life, single 500 mg oral 13C5-C3G, mean ± SEM): 1.6 ± 0.2 h

Continued, in another order:

half-life [1, 7] [h]	Tmax [1, 8] [h]	Cmax [1, 9] [nM]	AUC(0-t) [1, 10] [µM·h]	Tmax [2] [h]	Total recovery [2] [µg]	Maximum concentration [2] [nM]	Recovery 6–24 h [3]	Recovery 24–48 h [3]	Cmax [1, 11] [nM]	Tmax [1, 12] [h]	AUC0-48 [1, 12] [µM·h]	Recovery 0–6 h [3]	Compound	further results
0.4	1.8 ± 0.2	141 ± 70	0.279 ± 0.17	1 to 2	120.0 ± 54.1	334 ± 145	70.0 ^b μg	19.6 ^b μg	–	–	–	–	OCC1OC(Oc2cc3c(O)cc(O)cc3[o+]c2-c2ccc(O)c(O)c2)C(O)C(O)C1O (centres unmarked) [Cyanidin-3-glucoside, 6,8,10,3′,5′-^13C5-cyanidin-3-glucoside]	share of the total metabolites found in the circulation ([1]; serum, 500 mg oral 13C5-C3G): 2%; relative bioavailability ([4]; based on recovery of the 13C-label in urine and breath): 12.4 ± 1.4%; recovered 13C-label in faeces [4]: 32 ± 6%; recovery of the initial dose of 13C within the urine sample [4]: 12%
18 ± 15.6	2.7 ± 1	11 ± 3	0.06 ± 0.038	1 to 2	197.7 ± 41.2	301 ± 72	22.9 ± 22.0 ^g μg	49.0 ^b μg	–	–	–	–	O=C(O)c1ccc(O)c(OC2OC(C(=O)O)C(O)C(O)C2O)c1 (centres unmarked) [PCA-3-glucuronide]	–
–	–	–	–	–	618.4 ± 109.7	762 ± 124	3.3 ^b μg	9.5 ± 7.9 ^g μg	24 ± 4	4.8 ± 0.4	0.074 ± 0.011	3.6 ^b μg	COc1cc(C(=O)O)ccc1OC1OC(C(=O)O)C(O)C(O)C1O (centres unmarked) [VA-4-glucuronide]	–
